Experimental data: ChEMBL document CHEMBL1909046, “DrugMatrix in vitro pharmacology data”

Columns and labels:
[1] = target: T1, Alpha-1B adrenergic receptor (Rattus norvegicus, UniProt P15823); experiment: DRUGMATRIX: Alpha-1B adrenergic receptor radioligand binding (ligand: prazosin); type: cell membranes, Wistar, Liver, Membrane; conditions: Not Active = under 50% inhibition at 10 µM; for Ki: read-out: Ki
T1 sequence (P15823 whole entry): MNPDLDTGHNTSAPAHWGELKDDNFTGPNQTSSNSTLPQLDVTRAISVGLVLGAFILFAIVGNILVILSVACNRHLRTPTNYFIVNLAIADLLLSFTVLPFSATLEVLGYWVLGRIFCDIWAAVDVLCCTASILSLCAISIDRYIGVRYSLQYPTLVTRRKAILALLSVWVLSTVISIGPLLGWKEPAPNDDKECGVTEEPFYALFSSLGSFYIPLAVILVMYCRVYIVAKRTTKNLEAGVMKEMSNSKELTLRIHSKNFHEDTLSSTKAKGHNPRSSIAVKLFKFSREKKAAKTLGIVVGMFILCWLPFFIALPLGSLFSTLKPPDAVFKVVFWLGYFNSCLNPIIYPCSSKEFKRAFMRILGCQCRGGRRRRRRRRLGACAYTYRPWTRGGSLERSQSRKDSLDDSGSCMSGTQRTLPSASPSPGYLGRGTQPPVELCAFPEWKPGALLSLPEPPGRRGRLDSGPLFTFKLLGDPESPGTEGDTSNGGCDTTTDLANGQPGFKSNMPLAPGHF

[2] = DRUGMATRIX: Phosphodiesterase PDE4 enzyme inhibition (substrate: [3H]cAMP + cAMP); conditions: u-937, Not Active = under 50% inhibition at 10 µM
Insulin receptor = Insulin receptor (Rattus norvegicus, UniProt P15127); type: cell membranes, Wistar, Liver, Membrane; also: in other assays of this panel Not Active means under 50% inhibition at 10 µM
[3] = DRUGMATRIX: Leukotriene, BLT (LTB4) radioligand binding (ligand: [3H]LTB4); type: cell membranes, Membrane; conditions: u-937; Not Active = under 50% inhibition at 10 µM
[4] = target: Beta-1 adrenergic receptor (Homo sapiens, UniProt P08588); experiment: DRUGMATRIX: Adrenergic beta1 radioligand binding (ligand: [125I] Cyanopindolol); type: cell membranes, CHO-K1, Membrane; conditions: Not Active = under 50% inhibition at 10 µM
Estrogen receptor = target: T2, Estrogen receptor (Homo sapiens, UniProt P03372); conditions: sf9; also: in other assays of this panel Not Active means under 50% inhibition at 10 µM
T2 sequence (P03372 whole entry): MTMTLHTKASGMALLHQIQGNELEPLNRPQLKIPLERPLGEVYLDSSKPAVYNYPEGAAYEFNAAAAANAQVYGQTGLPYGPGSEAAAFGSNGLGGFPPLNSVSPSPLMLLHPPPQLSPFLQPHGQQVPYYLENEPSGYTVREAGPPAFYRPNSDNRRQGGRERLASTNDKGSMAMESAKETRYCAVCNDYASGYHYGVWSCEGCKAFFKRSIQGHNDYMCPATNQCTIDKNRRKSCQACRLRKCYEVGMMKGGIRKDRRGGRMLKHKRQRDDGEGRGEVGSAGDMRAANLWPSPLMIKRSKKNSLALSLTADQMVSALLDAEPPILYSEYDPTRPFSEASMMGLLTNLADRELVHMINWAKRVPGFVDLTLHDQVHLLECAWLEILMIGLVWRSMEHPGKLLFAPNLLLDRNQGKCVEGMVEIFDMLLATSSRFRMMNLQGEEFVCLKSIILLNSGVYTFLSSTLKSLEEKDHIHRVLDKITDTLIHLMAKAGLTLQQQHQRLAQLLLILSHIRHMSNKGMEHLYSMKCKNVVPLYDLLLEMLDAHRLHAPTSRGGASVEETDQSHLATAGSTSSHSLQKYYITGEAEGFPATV

Insulin receptor, sequence (P15127 27-759 limits assumed): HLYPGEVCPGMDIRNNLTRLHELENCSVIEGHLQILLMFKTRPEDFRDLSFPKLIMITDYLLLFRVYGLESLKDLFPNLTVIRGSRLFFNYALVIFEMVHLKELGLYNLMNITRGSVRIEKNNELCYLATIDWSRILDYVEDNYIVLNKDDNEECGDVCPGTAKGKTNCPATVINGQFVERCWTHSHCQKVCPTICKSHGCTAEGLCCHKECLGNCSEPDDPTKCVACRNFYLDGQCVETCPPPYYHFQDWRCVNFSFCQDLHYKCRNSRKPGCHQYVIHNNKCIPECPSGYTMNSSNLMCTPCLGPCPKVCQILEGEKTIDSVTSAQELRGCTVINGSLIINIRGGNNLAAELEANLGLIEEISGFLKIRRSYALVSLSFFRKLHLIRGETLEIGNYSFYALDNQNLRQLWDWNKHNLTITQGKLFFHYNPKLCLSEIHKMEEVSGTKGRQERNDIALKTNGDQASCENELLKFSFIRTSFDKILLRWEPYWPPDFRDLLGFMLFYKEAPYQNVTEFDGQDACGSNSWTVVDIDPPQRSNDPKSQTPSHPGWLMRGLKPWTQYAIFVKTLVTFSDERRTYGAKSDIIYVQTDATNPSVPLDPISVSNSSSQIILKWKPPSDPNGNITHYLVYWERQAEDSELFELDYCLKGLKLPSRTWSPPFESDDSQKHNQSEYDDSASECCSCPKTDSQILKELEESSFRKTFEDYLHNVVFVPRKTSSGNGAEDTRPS
Insulin receptor, sequence (P15127 764-1383 limits assumed): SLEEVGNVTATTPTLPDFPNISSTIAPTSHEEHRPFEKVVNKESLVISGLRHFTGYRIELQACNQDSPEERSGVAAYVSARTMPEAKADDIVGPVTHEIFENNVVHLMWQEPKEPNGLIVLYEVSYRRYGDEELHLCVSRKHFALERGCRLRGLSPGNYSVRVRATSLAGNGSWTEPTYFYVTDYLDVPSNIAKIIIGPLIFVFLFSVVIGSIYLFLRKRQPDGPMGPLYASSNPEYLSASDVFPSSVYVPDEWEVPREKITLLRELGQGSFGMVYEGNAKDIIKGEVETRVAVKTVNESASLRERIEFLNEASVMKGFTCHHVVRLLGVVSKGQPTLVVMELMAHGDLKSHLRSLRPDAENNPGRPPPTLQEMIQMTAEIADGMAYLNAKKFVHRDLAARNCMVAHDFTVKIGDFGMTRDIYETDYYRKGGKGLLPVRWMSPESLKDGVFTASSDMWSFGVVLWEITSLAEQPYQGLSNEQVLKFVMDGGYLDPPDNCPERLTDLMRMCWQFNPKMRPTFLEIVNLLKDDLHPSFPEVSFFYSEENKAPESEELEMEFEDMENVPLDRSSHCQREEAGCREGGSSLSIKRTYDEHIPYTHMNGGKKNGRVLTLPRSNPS
Beta-1 adrenergic receptor, sequence (P08588 whole entry): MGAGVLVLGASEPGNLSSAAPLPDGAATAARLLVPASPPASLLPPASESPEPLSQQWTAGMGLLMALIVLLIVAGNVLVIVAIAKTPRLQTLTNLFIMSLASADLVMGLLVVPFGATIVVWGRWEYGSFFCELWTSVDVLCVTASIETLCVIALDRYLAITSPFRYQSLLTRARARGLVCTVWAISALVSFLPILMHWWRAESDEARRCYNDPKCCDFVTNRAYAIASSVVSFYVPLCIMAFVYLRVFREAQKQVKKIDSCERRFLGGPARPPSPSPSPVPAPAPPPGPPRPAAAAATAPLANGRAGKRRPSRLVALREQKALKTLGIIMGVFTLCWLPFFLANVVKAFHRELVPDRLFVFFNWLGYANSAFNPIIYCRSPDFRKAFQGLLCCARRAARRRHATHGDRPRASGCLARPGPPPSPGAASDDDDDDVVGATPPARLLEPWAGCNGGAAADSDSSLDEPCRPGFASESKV

SMILES | IC50 [1] | IC50 [2] | Ki [2] | IC50 (Insulin receptor) | IC50 [3] | Ki [3] | IC50 ([4]; cho-k1) | IC50 (Estrogen receptor) | IC50 ([1]; read-out: IC50) [nM] | Ki [1] [nM] | IC50 ([4]; read-out: IC50) [nM] | Ki ([4]; read-out: Ki) [nM] | IC50 ([2]; read-out: IC50) [nM]
CCCNC(C)C(=O)Nc1ccccc1C (stereo unspecified) [PRILOCAINE] | Not Active | Not Active | Not Active | Not Active | Not Active | Not Active | Not Active | Not Active | – | – | – | – | –
CCN(CC)CCCC(C)Nc1c2ccc(Cl)cc2nc2ccc(OC)cc12 (stereo unspecified) [QUINACRINE] | – | Not Active | Not Active | Not Active | Not Active | Not Active | Not Active | Not Active | 3410 | 1890 | – | – | –
CN1CCC(=C2c3ccccc3CC(=O)c3sccc32)CC1 [KETOTIFEN] | Not Active | Not Active | Not Active | Not Active | Not Active | Not Active | – | Not Active | – | – | – | – | –
CC(C)NCC(O)c1ccccc1Cl (stereo unspecified) [CLORPRENALINE] | Not Active | Not Active | Not Active | Not Active | Not Active | Not Active | – | Not Active | – | – | 2590 | 1500 | –
NC(=O)c1cccnc1 [NIACINAMIDE] | Not Active | Not Active | Not Active | Not Active | Not Active | Not Active | Not Active | Not Active | – | – | – | – | –
C[C@]12C=CC(=O)C=C1CC[C@H]1[C@@H]3C[C@@H](O)[C@](O)(C(=O)CO)[C@@]3(C)C[C@H](O)[C@@]12F [TRIAMCINOLONE] | Not Active | Not Active | Not Active | Not Active | Not Active | Not Active | Not Active | Not Active | – | – | – | – | –
CC(=O)OCC(=O)[C@@]1(O)CC[C@H]2[C@@H]3CCC4=CC(=O)CC[C@]4(C)[C@@]3(F)[C@@H](O)C[C@@]21C [FLUDROCORTISONE ACETATE] | Not Active | Not Active | Not Active | Not Active | Not Active | Not Active | Not Active | Not Active | – | – | – | – | –
CN(C)C(=O)Oc1cccc([N+](C)(C)C)c1.[Br-] [NEOSTIGMINE BROMIDE] | Not Active | Not Active | Not Active | Not Active | Not Active | Not Active | Not Active | Not Active | – | – | – | – | –
CN1C[C@@H]2C[C@H]1CN2c1cc2c(cc1F)c(=O)c(C(=O)O)cn2C1CC1 [DANOFLOXACIN] | Not Active | Not Active | Not Active | Not Active | Not Active | Not Active | Not Active | Not Active | – | – | – | – | –
CC(=O)OCC(=O)[C@@]12OC(C)(C)O[C@@H]1C[C@H]1[C@@H]3C[C@H](F)C4=CC(=O)C=C[C@]4(C)[C@@]3(F)[C@@H](O)C[C@@]12C [FLUOCINONIDE] | Not Active | Not Active | Not Active | Not Active | Not Active | Not Active | Not Active | Not Active | – | – | – | – | –
CN1CCCC(CN2c3ccccc3Sc3ccccc32)C1 (stereo unspecified) [MEPAZINE] | – | Not Active | Not Active | Not Active | Not Active | Not Active | Not Active | Not Active | 61 | 34 | – | – | –
NCCCNCCSP(=O)(O)O [AMIFOSTINE] | Not Active | Not Active | Not Active | Not Active | Not Active | Not Active | Not Active | Not Active | – | – | – | – | –
CC[C@]1(O)C[C@@H]2CN(CCc3c([nH]c4ccccc34)[C@@](C(=O)OC)(c3cc4c(cc3OC)N(C)[C@H]3[C@@](O)(C(N)=O)[C@H](O)[C@]5(CC)C=CCN6CC[C@]43[C@@H]65)C2)C1 [VINDESINE] | Not Active | Not Active | Not Active | Not Active | Not Active | Not Active | Not Active | Not Active | – | – | – | – | –
CCn1cc(C(=O)O)c(=O)c2cc(F)c(N3CCNC(C)C3)c(F)c21 (stereo unspecified) [LOMEFLOXACIN] | Not Active | Not Active | Not Active | Not Active | Not Active | Not Active | Not Active | Not Active | – | – | – | – | –
CN1CCN(c2c(F)cc3c(=O)c(C(=O)O)cn(CCF)c3c2F)CC1 [FLEROXACIN] | Not Active | Not Active | Not Active | Not Active | Not Active | Not Active | Not Active | Not Active | – | – | – | – | –
CC(C)(C(=O)O)c1ccc(C(O)CCCN2CCC(C(O)(c3ccccc3)c3ccccc3)CC2)cc1 (stereo unspecified) [FEXOFENADINE] | Not Active | Not Active | Not Active | Not Active | Not Active | Not Active | Not Active | Not Active | – | – | – | – | –
CC(C)c1c(C(=O)Nc2ccccc2)c(-c2ccccc2)c(-c2ccc(F)cc2)n1CC[C@@H](O)C[C@@H](O)CC(=O)O [ATORVASTATIN] | Not Active | Not Active | Not Active | Not Active | Not Active | Not Active | Not Active | – | – | – | – | – | –
COc1cccc2c1C(=O)c1c(O)c3c(c(O)c1C2=O)C[C@@](O)(C(C)=O)C[C@@H]3O[C@H]1C[C@H](N)[C@H](O)[C@H](C)O1 [DAUNORUBICIN] | Not Active | Not Active | Not Active | Not Active | Not Active | Not Active | Not Active | – | – | – | – | – | –
CC(O)(P(=O)(O)O)P(=O)(O)O [ETIDRONIC ACID] | Not Active | Not Active | Not Active | Not Active | Not Active | Not Active | Not Active | – | – | – | – | – | –
O=C(O)CC(O)(CC(=O)O)C(=O)O [CITRIC ACID] | Not Active | Not Active | Not Active | Not Active | Not Active | Not Active | – | Not Active | – | – | – | – | –
O=c1c(-c2ccc(O)cc2)coc2cc(O)cc(O)c12 [GENISTEIN] | Not Active | – | – | Not Active | Not Active | Not Active | Not Active | – | – | – | – | – | 10900
CN(C)C(=N)NC(=N)N [METFORMIN] | Not Active | Not Active | Not Active | Not Active | Not Active | Not Active | Not Active | – | – | – | – | – | –
C[C@H]1O[C@H](O[C@H]2[C@H](O)[C@@H](O)[C@@H](O[C@H]3[C@H](O)[C@@H](O)C(O)O[C@@H]3CO)O[C@@H]2CO)[C@H](O)[C@@H](O)[C@@H]1N[C@H]1C=C(CO)[C@@H](O)[C@H](O)[C@H]1O (stereo partly specified) [ACARBOSE] | Not Active | Not Active | Not Active | Not Active | Not Active | Not Active | Not Active | – | – | – | – | – | –
COc1ccccc1N | Not Active | Not Active | Not Active | Not Active | Not Active | Not Active | Not Active | – | – | – | – | – | –
CS(=O)(=O)Nc1ccc([N+](=O)[O-])cc1Oc1ccccc1 [NIMESULIDE] | Not Active | Not Active | Not Active | Not Active | Not Active | Not Active | Not Active | – | – | – | – | – | –
C[N+](C)(C)C[C@H](O)CC(=O)[O-] [LEVOCARNITINE] | Not Active | Not Active | Not Active | Not Active | Not Active | Not Active | Not Active | – | – | – | – | – | –
CO/N=C(\C(=O)N[C@@H]1C(=O)N2C(C(=O)O)=C(COC(C)=O)CS[C@H]12)c1csc(N)n1 [CEFOTAXIME] | Not Active | Not Active | Not Active | Not Active | Not Active | Not Active | Not Active | – | – | – | – | – | –
